Reference: patent US9123099B2, “Systems with workstations and circuits for generating images of global injury” (Wake Forest University Health Sciences, priority 2004, dated 2015)

Key:
[1] = test system: left ventricle myocardium; experiment: Cross-sectional delayed enhancement MRI/CMR study of gadolinium contrast uptake, voxel intensity and auto-correlation; type: in vivo, human
Text: In particular embodiments of the present invention, a patient may be taken to the MRI suite where he/she will be placed supine on the MRI table and ECG leads and respiratory gating bellows applied. MRI scans may be performed on, for example, a 1.5 Tesla GE CVi scanner with a phased array surface coil applied around the chest to optimize signal to noise ratio, or another MRI scanner. Images may be acquired using a fast gradient echo technique, with the repetition time (TR) and echo time (TE) based on the R-R interval of the subject. Multislice coronal, gradient echo sequences may be used to obtain scout images of the chest and locate the left ventricle. Subjects may be injected intravenously with a gadolinium contrast agent (0.2 mmole/kg Gadoteridol (Prohance, Bracco Diagnostics, Princeton, N.J.)). The time of this injection may be recorded.
However, this method may not be as well suited for a process that causes necrosis to susceptible tissue throughout the LV myocardium in a randomly distributed pattern (e.g. a global injury). To overcome this limitation, voxels, and in some embodiments all the voxels, within three short axis slice positions (apex, middle, and base) within the LV may be sampled and the intensity and x, y, and z coordinates of each voxel identified in 3-dimensional space (FIG. 6). FIG. 6 is a 3-Dimensional depiction of 3 short axis (basal, middle, and apical) planes of the left ventricle. […] During analysis, the image intensity of each voxel and the x, y, and z coordinates are recorded. […]
Correction for variations in the intensity of voxels in the images may also be identified by determining the intensity of voxels within a target region, typically, a 1 cm diameter circular ROI placed outside the heart. For each apical, middle, and basal slice, the number of pixels at a given intensity may be determined and the intensity from the ROI external to the heart subtracted from the pixels. In certain embodiments, for each slice, the mean intensity of all voxels and the peak voxel intensity in the highest 40% of the distribution may be determined (FIG. 6). […]

[2] = cited from earlier work

## COc1cccc2c1C(=O)c1c(O)c3c(c(O)c1C2=O)C[C@@](O)(C(=O)CO)C[C@@H]3O[C@H]1C[C@H](N)[C@H](O)[C@H](C)O1 [doxorubicin]
[1]; doxorubicin cardiomyopathy patient, middle short axis view, 20 minutes after contrast, low in healthy patient, highest in infarct patient
  mean intensity of contrast uptake in voxel histogram: intermediate
[1]; patients with cardiomyopathy due to doxorubicin, about 20 minutes after contrast
  percentage of voxel intensities in aggregate histograms vs normal age matched controls: increased percentage of intensities
[1]; patients with cardiomyopathy secondary to doxorubicin, p<0.001 vs myocardial infarction
  pattern of contrast uptake within the LV (serial auto-correlation): random
[2]; approximately 100 mg/m^2, usually at T=1 month
  patients experiencing toxicity who do so after receipt of approximately 100 mg/m^2: about 85%
[2]; patients, cumulative dose
  dose above which irreversible cardiomyopathy with serious congestive heart failure is a significant risk: 500-550 mg/m^2
[2]; report of 1487 patients studied over a seven year period
  dose that precipitates congestive heart failure: 30-880 mg/m^2
